Source: patent US7015215B2, “Pyrrolo[2,1-c][1,4] benzodiazepines compounds and process thereof” (Council of Scientific and Industrial Research, priority 2003, dated 2006)

What was measured:
Assay type in all cases: cell-based, human
U251 = test: NCI SRB cytotoxicity, CNS U251; conditions: 48 h
Procedure: (§1) Biological Activity: In vitro biological activity studies were carried out at National Cancer Institute (U.S.A.).
(§2) For each compound, dose response curves for each cell line were measured at a minimum of five concentrations at 10 fold dilutions. A protocol of 48 h continuous drug exposure was used, and a sulforhodamine B (SRB) protein assay was used to estimate cell viability or growth. The concentration causing 50% cell growth inhibition (GI50), total cell growth inhibition (TGI, 0% growth) and 50% cell death (LC50, −50% growth) compared with the control was calculated.

HOP-62 = test: NCI SRB cytotoxicity, Non-small-cell lung HOP-62; conditions: HOP-62, Non-small-cell lung, 48 h
Procedure: as §1, §2

HS578T = test: NCI SRB cytotoxicity, Breast HS578T; conditions: 48 h
MDA-MB-435 = test: NCI SRB cytotoxicity, Breast MDA-MB-435; conditions: MDA-MB-435, Breast, 48 h
Procedure: as §1, §2

UACC-257 = test: NCI SRB cytotoxicity, Melanoma UACC-257; conditions: UACC-257, Melanoma, 48 h
Procedure: as §1, §2

OVCAR-4 = test: NCI SRB cytotoxicity, Ovarian OVCAR-4; conditions: OVCAR-4, Ovarian, 48 h
Procedure: as §1, §2

SNB-75 = test: NCI SRB cytotoxicity, CNS SNB-75; conditions: SNB-75, CNS, 48 h
Procedure: as §1, §2

NCI-H226 = test: NCI SRB cytotoxicity, Non-small-cell lung NCI-H226; conditions: 48 h
Procedure: as §1, §2

SK-MEL-5 = test: NCI SRB cytotoxicity, Melanoma SK-MEL-5; conditions: SK-MEL-5, Melanoma, 48 h
HCT-15 = test: NCI SRB cytotoxicity, Colon HCT-15; conditions: HCT-15, Colon, 48 h
Procedure: as §1, §2

HCC-2998 = test: NCI SRB cytotoxicity, Colon HCC-2998; conditions: HCC-2998, Colon, 48 h
Procedure: as §1, §2

MDA-MB-231/ATCC = test: NCI SRB cytotoxicity, Breast MDA-MB-231/ATCC; conditions: 48 h
Procedure: as §1, §2

NCI-H522 = test: NCI SRB cytotoxicity, Non-small-cell lung NCI-H522; conditions: 48 h
PC-3 = test: NCI SRB cytotoxicity, Prostate PC-3; conditions: PC-3, Prostate, 48 h
Procedure: as §2

SK-MEL-28 = test: NCI SRB cytotoxicity, Melanoma SK-MEL-28; conditions: SK-MEL-28, Melanoma, 48 h
M14 = test: NCI SRB cytotoxicity, Melanoma M14; conditions: 48 h
COLO 205 = test: NCI SRB cytotoxicity, Colon COLO 205; conditions: COLO 205, Colon, 48 h
Procedure: as §1, §2

TK-10 = test: NCI SRB cytotoxicity, Renal TK-10; conditions: TK-10, Renal, 48 h
Procedure: as §1, §2

A498 = test: NCI SRB cytotoxicity, Renal A498; conditions: 48 h
NCI-H460 = test: NCI SRB cytotoxicity, Non-small-cell lung NCI-H460; conditions: 48 h
DU-145 = test: NCI SRB cytotoxicity, Prostate DU-145; conditions: DU-145, Prostate, 48 h
Procedure: as §2

NCI/ADR-RES = test: NCI SRB cytotoxicity, Breast NCI/ADR-RES; conditions: 48 h
Procedure: as §1, §2

OVCAR-5 = test: NCI SRB cytotoxicity, Ovarian OVCAR-5; conditions: OVCAR-5, Ovarian, 48 h
MALME-3M = test: NCI SRB cytotoxicity, Melanoma MALME-3M; conditions: 48 h
Procedure: as §1, §2

BT-549 = test: NCI SRB cytotoxicity, Breast BT-549; conditions: BT-549, Breast, 48 h
ACHN = test: NCI SRB cytotoxicity, Renal ACHN; conditions: 48 h
Procedure: as §1, §2

IGROVI = test: NCI SRB cytotoxicity, Ovarian IGROVI; conditions: 48 h
HT-29 = test: NCI SRB cytotoxicity, Colon HT-29; conditions: HT-29, Colon, 48 h
Procedure: as §1, §2

NCI-H23 = test: NCI SRB cytotoxicity, Non-small-cell lung NCI-H23; conditions: 48 h
Procedure: as §1, §2

EKVX = test: NCI SRB cytotoxicity, Non-small-cell lung EKVX; conditions: 48 h
Procedure: as §1, §2

T-47D = test: NCI SRB cytotoxicity, Breast T-47D; conditions: 48 h
Procedure: as §1, §2

A549/ATCC = test: NCI SRB cytotoxicity, Non-small-cell lung A549/ATCC; conditions: 48 h
Procedure: as §1, §2

SR = test: NCI SRB cytotoxicity, Leukemia SR; conditions: 48 h
Procedure: as §1, §2

MOLT-4 = test: NCI SRB cytotoxicity, Leukemia MOLT-4; conditions: MOLT-4, Leukemia, 48 h
NCI-H322 = test: NCI SRB cytotoxicity, Non-small-cell lung NCI-H322; conditions: 48 h
SF-268 = test: NCI SRB cytotoxicity, CNS SF-268; conditions: SF-268, CNS, 48 h
Procedure: as §1, §2

KM-12 = test: NCI SRB cytotoxicity, Colon KM-12; conditions: KM-12, Colon, 48 h
Procedure: as §1, §2

OVCAR-8 = test: NCI SRB cytotoxicity, Ovarian OVCAR-8; conditions: OVCAR-8, Ovarian, 48 h
Procedure: as §1, §2

RXF 393 = test: NCI SRB cytotoxicity, Renal RXF 393; conditions: RXF 393, Renal, 48 h

COc1cc2c(cc1OCCCCN1CCN(CCCCOc3cc4c(cc3OC)C(=O)N3CCC[C@H]3C=N4)CC1)N=C[C@@H]1CCCN1C2=O [Compound VIc, 1,1′-{[(bisbutane-1,N-diyl)piperazine]dioxy}bis[(11aS)-7-methoxy-1,2,3,11a-tetrahydro-5H-pyrrolo[2,1-c][1,4]benzodiazepin-5-one]]
Log LC 50 (U251): −4.41 mol/L
Log LC 50 (HOP-62): −4.00 mol/L
Log GI 50 (HS578T): −7.30 mol/L
Log LC 50 (HS578T): −4.00 mol/L
Log GI 50 (MDA-MB-435): −7.87 mol/L
Log LC 50 (MDA-MB-435): −7.15 mol/L
Log GI 50 (UACC-257): −7.65 mol/L
Log GI 50 (OVCAR-4): −7.11 mol/L
Log LC 50 (OVCAR-4): −4.00 mol/L
Log GI 50 (SNB-75): −7.94 mol/L
Log LC 50 (SNB-75): −4.00 mol/L
Log LC 50 (NCI-H226): −4.00 mol/L
Log GI 50 (SK-MEL-5): −7.86 mol/L
Log LC 50 (SK-MEL-5): −6.68 mol/L
Log GI 50 (HCT-15): −7.92 mol/L
Log LC 50 (HCT-15): −6.37 mol/L
Log GI 50 (HCC-2998): −7.95 mol/L
Log LC 50 (HCC-2998): −4.00 mol/L
Log GI 50 (MDA-MB-231/ATCC): −7.47 mol/L
Log LC 50 (MDA-MB-231/ATCC): −4.43 mol/L
Log LC 50 (NCI-H522): −4.00 mol/L
Log GI 50 (PC-3): −7.02 mol/L
Log LC 50 (PC-3): −4.00 mol/L
Log GI 50 (SK-MEL-28): −7.69 mol/L
Log LC 50 (SK-MEL-28): −4.00 mol/L
Log GI 50 (M14): −7.60 mol/L
Log LC 50 (M14): −4.17 mol/L
Log GI 50 (COLO 205): −7.99 mol/L
Log LC 50 (COLO 205): −6.26 mol/L
Log GI 50 (TK-10): −7.69 mol/L
Log LC 50 (TK-10): −4.00 mol/L
Log GI 50 (A498): −6.89 mol/L
Log LC 50 (NCI-H460): −4.00 mol/L
Log GI 50 (DU-145): −7.60 mol/L
Log LC 50 (DU-145): −4.00 mol/L
Log GI 50 (NCI/ADR-RES): −6.47 mol/L
Log LC 50 (NCI/ADR-RES): −4.00 mol/L
Log GI 50 (OVCAR-5): −7.92 mol/L
Log LC 50 (OVCAR-5): −4.00 mol/L
Log LC 50 (MALME-3M): −7.41 mol/L
Log GI 50 (BT-549): −7.68 mol/L
Log LC 50 (BT-549): −4.00 mol/L
Log LC 50 (ACHN): −4.00 mol/L
Log GI 50 (IGROVI): −6.79 mol/L
Log LC 50 (IGROVI): −4.00 mol/L
Log GI 50 (HT-29): −7.89 mol/L
Log LC 50 (HT-29): −4.00 mol/L
Log LC 50 (NCI-H23): −5.59 mol/L
Log GI 50 (EKVX): −6.36 mol/L
Log LC 50 (EKVX): −4.00 mol/L
Log LC 50 (T-47D): −4.00 mol/L
Log GI 50 (A549/ATCC): −7.23 mol/L
Log LC 50 (A549/ATCC): −4.00 mol/L
Log LC 50 (SR): −5.62 mol/L
Log LC 50 (MOLT-4): −4.00 mol/L
Log GI 50 (NCI-H322): −7.59 mol/L
Log LC 50 (NCI-H322): −4.00 mol/L
Log LC 50 (SF-268): −4.00 mol/L
Log GI 50 (KM-12): −7.84 mol/L
Log LC 50 (KM-12): −4.67 mol/L
Log LC 50 (OVCAR-8): −4.00 mol/L
Log GI 50 (RXF 393): −7.54 mol/L
Log LC 50 (RXF 393): −4.00 mol/L
